Measurements from ChEMBL document CHEMBL4715810, “Treatment of Metabolic Disorders with CB-1 Receptor Inverse Agonists” (ACS Med Chem Lett, 2016).

Assays:
Cannabinoid receptor 2 = Cannabinoid receptor 2 (Homo sapiens, UniProt P34972); experiment: Inverse agonist activity at human CB2 receptor expressed in HEK293 cells assessed as forskolin-stimulated cAMP accumulation measured after 30 mins by HTRF assay; assay type: functional, cell-based
Cannabinoid receptor 1 = Cannabinoid receptor 1 (Homo sapiens, UniProt P21554); experiment: Inverse agonist activity at human CB1 receptor expressed in HEK293 cells assessed as forskolin-stimulated cAMP accumulation measured after 30 mins by HTRF assay; assay type: functional, cell-based
Cannabinoid receptor 1, sequence (P21554 whole entry): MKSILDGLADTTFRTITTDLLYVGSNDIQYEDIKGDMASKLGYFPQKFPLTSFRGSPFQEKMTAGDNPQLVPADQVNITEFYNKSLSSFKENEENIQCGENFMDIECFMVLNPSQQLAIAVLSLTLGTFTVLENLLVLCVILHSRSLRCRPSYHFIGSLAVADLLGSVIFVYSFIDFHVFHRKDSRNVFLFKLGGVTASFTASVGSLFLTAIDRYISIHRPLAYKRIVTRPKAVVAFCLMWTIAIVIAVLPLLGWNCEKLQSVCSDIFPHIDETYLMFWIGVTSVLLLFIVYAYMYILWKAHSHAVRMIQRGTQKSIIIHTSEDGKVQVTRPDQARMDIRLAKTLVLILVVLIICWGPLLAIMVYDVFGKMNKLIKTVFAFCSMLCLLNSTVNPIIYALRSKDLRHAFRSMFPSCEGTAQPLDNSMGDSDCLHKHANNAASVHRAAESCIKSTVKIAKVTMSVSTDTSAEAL

Cannabinoid receptor 2, sequence (P34972 whole entry): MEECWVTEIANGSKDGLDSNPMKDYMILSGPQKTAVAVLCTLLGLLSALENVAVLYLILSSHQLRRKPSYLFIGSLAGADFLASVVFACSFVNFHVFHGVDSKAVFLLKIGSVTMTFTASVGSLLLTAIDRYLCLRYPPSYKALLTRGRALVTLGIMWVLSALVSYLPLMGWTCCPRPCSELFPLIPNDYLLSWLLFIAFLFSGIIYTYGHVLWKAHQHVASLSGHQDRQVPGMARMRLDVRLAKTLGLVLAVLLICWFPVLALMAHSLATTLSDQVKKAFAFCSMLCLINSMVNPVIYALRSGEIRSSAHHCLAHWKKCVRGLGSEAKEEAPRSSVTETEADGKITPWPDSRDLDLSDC

SMILES	EC50 (Cannabinoid receptor 2)	EC50 (Cannabinoid receptor 1)
O=S(=O)(N1CCC(Nc2cnnc3ccc(C(O)(c4ccc(Cl)cc4)c4ccc(Cl)cc4)cc23)CC1)C(F)(F)F	> 10 µM	–
Clc1ccc(C(c2ccc(Cl)cc2)c2ccc3nncc(NC4CCC(Nc5ccccc5)CC4)c3c2)cc1 (centres undefined)	> 10 µM	0.099 µM
O=C(O)c1ccccc1S(=O)(=O)N1CCC(Nc2cnnc3ccc(C(c4ccc(Cl)cc4)c4ccc(Cl)cc4)cc23)CC1	> 10 µM	–
